Source: patent publication US20230365625A1, “METHODS FOR TREATING AND/OR PREVENTING UNDESIRABLE SEQULAE OF NASAL TURBINOPLASTY OR FUNCTIONAL ENDOSCOPIC SINUS SURGERY” (3-D Matrix, Ltd., priority 2022, published 2023)
“And” between values parts separate entries of the source, which are not always exact repeats. Equal entries are not always repeated. “Also recorded” adds a separate entry of the source.

Key:
[1] = 1% in water; cited from earlier work
[2] = test system: gastrointestinal endoscopic procedures and cardiovascular surgery; details: 2.5% w/v in water, topical hemostat; cited from earlier work
[3] = test system: nasal mucosal injuries on the middle turbinate and opposing nasal septum; assay: Intra-operative time to hemostasis, sheep endoscopic nasal surgery model; format: in vivo, Merino sheep
Procedure: Surgical Methods—On the day prior to surgery, the animals were weighed, and each nostril was randomly assigned by computer randomization to receive PuraSinus, FLOSEAL or no treatment to each nostril after the surgical turbinoplasty. Each animal had food withheld for 24 hours and water withheld for 8 to 12 hours prior to the day of surgery as per the standard anesthetic procedure. The animals were sedated with a weight adjusted dose of intravenous diazepam. Following sedation, a percutaneous jugular catheter was inserted and secured, with induction achieved by further weight adjusted doses of intravenous diazepam and ketamine. The animals were placed in sternal recumbency for insertion of a size-appropriate endotracheal tube. Anesthesia was maintained through inhaled 1-2% isofluorane with parenteral propofol and ketamine given when necessary. Each animal was then given a prophylactic dose of long-acting antibiotic, weight adjusted oxytetracycline to cover for postoperative infections. The nasal cavity was prepared by packing with surgical pledgets soaked in 1% lignocaine and phenylephrine mixture. The middle turbinate was infiltrated with the same lignocaine/phenylephrine mixture via a small gauge needle in numerous sites over the middle turbinate. The use of vasoconstrictors and decongestants such as lignocaine and phenylephrine both topically and injected locally is standard pre-operatively in patients undergoing turbinoplasty (Ahmed S. et al., J. Coll. Physicians Surg. Pak. 26(6): 531-2 (2016)) The animals' vital signs were monitored throughout the procedure.
Prior to making incisions, all sheep were first examined under endoscope to screen for any nasal septum deviations. Only animals that had straight septum and uniform space between septum and middle turbinate were used. […]
Intraoperative observations—The degree of bleeding/hemostasis was assessed by an independent observer who was blinded to the appearance of FLOSEAL and PuraSinus (SEQ ID NO:1), and to the background of these two hemostatic agents. […]

[4] = RADA16 2.5%, IEIK13 1.3%, QLEL12 0.15% in water; result in words; cited from earlier work
[5] = 2.5% in water; cited from earlier work
[6] = test system: nasal mucosal injuries on the middle turbinate and opposing nasal septum; assay: Endoscopic grading of synechiae/adhesion formation at day 14 and day 42, sheep model; format: in vivo, Merino sheep; set-up: key to Adhesion score day 14 / Adhesion score day 42: 0: No intranasal adhesions/synechiae; 1: Intranasal adhesion extends less than 25% to septum; Intranasal adhesion extends 25-50% to septum; 3: Intranasal adhesion extends more than 50% to septum; 4: Completely formed adhesion/synechiae extending to septum; details: for Number of sites, synechiae Grade 0 / Number of sites, synechiae Grade 1 / Number of sites, synechiae Grade 2 / Number of sites, synechiae Grade 3 / Number of sites, synechiae Grade 4: 20 sites per group
Procedure: Post-operative observations—Post recovery from anesthesia, the animals were returned to their pens with ongoing daily monitoring for 14 days, including bloody nasal discharge, temperature, and food and water intake. On each postoperative day, the animals were examined externally by an independent observer, with no involvement in the operation, for the presence of bloody nasal discharges. External blood was cleaned off after each examination followed with irrigation of each nostril using 20 ml of saline solution. Regular irrigation of the nose and sinuses is standard in post-operative care following nasal surgery. The sheep were sedated and examined via endoscope again on day 14 for the presence of adhesions and graded by an independent observer using the grading scheme below for sheep nasal adhesions. Representative endoscopic images for sites (two sites/sides per sheep) treated with PuraSinus (SEQ ID NO:1) are shown in FIG. 1 and untreated control sites are shown in FIG. 2, respectively. The sheep were euthanized at day 42, with a necropsy performed by the same independent observer grading intranasal adhesion formation and extension. […] [table]

[7] = test system: turbinate reduction surgery (TRS/Turbinoplasty); details: first follow-up at four weeks; result in words; cited from earlier work
[8] = test system: punch hole injuries to the liver; details: pig, in vivo; cited from earlier work

## CC(=O)N[C@@H](CCCNC(=N)N)C(=O)N[C@@H](C)C(=O)N[C@@H](CC(=O)O)C(=O)N[C@@H](C)C(=O)N[C@@H](CCCNC(=N)N)C(=O)N[C@@H](C)C(=O)N[C@@H](CC(=O)O)C(=O)N[C@@H](C)C(=O)N[C@@H](CCCNC(=N)N)C(=O)N[C@@H](C)C(=O)N[C@@H](CC(=O)O)C(=O)N[C@@H](C)C(=O)N[C@@H](CCCNC(=N)N)C(=O)N[C@@H](C)C(=O)N[C@@H](CC(=O)O)C(=O)N[C@@H](C)C(N)=O [PuraSinus, Ac-RADARADARADARADA-NH2]
[1]
  Increase in storage modulus G′ after DMEM treatment relative to before: 43.5 fold
[2]
  Successful hemostasis rates: 72.6-100%
[3]; individual surgical site (sheep number, nostril), listed as P
  Time to hemostasis: 120 sec and 102 sec and 125 sec and 130 sec (3×) and 140 sec and 150 sec (2×) and 70 sec and 220 sec and 85 sec and 180 sec and 190 sec and 210 sec and 95 sec and 290 sec and 58 sec and 131 sec and 87 sec
[3]; sheep, mean±SD, 20 sites per group
  Intra-operative hemostasis time: 139.7 ± 56.2 s
[3]; sheep, result in words
  Hemostasis compared to untreated control: statistically significant reduction in time to hemostasis; also recorded: improved hemostasis
[4]
  Effect of gamma-irradiation sterilization: enhanced the rheological properties
[5]
  Storage modulus G′: about 350 Pa
[6]; 2 weeks
  Reduction of two-week synechiae score versus Controls: 91%
  Reduction of two-week synechiae score versus Gelatin-thrombin treatment: 92%
[6]; 6 weeks
  Reduction of six-week synechiae score: 100%
[6]; at 2 weeks
  Sites in which synechiae occurred: 20%
[6]; at 6 weeks
  Sites in which synechiae occurred: 0%
[6]; individual site, grade 0-4
  Adhesion score day 42: 0
[6]; individual site, grade 0-4, listed as P
  Adhesion score day 14: 0 (16×) and 1 (Intranasal adhesion extends less than 25% to septum) (3×) and 2 (Intranasal adhesion extends 25-50% to septum)
[6]; maximum 4 points, mean±SD
  Two-week synechiae score: 0.3±0.6 points
[6]; sheep, result in words
  Synechiae formation compared to FLOSEAL and untreated control: lowest observed synechiae formation; also recorded: more effective in inhibiting the formation of synechiae; also recorded: statistically significant lower incidence of adhesions; also recorded: significantly reduced synechiae formation
[6]; six weeks post-surgery
  Number of sites, synechiae Grade 0: 20
  Number of sites, synechiae Grade 1: 0
  Number of sites, synechiae Grade 2: 0
  Number of sites, synechiae Grade 3: 0
  Number of sites, synechiae Grade 4: 0
[6]; two weeks post-surgery
  Number of sites, synechiae Grade 0: 16
  Number of sites, synechiae Grade 1: 3
  Number of sites, synechiae Grade 2: 1
  Number of sites, synechiae Grade 3: 0
  Number of sites, synechiae Grade 4: 0
[7]
  Postoperative bleeding or adhesion formation: none of their patients experiencing bleeding or adhesion formation postoperatively
[8]
  Inflammatory cell infiltration due to the gel in the wound: absence if inflammatory cell infiltration
